Laboratory results from ChEMBL document CHEMBL5620414, “Discovery of YK-029A, a novel mutant EGFR inhibitor targeting both T790 M and exon 20 insertion mutations, as a treatment for NSCLC” (Eur J Med Chem, 2023).

Experiments:
[1] = biological target: Epidermal growth factor receptor (Homo sapiens, UniProt P00533); experiment: Inhibition of wildtype EGFR (unknown origin) incubated for 60 mins in presence of ATP by biochemical enzymatic assay
[2] = biological target: Epidermal growth factor receptor (Homo sapiens, UniProt P00533, L858R/T790M); experiment: Inhibition of GST-tagged recombinant human EGFR T790M/L858R mutant (668 to 1210 residues) expressed in Insect cells incubated for 60 mins in presence of ATP by biochemical enzymatic assay; set-up: species or system Insect cell
[3] = test system: A-431; experiment: Antiproliferative activity against human A-431 cells harboring wildtype EGFR assessed as cell growth inhibition incubated for 72 hrs by CellTiter Glo assay; type: functional
[4] = test system: PC-9; experiment: Antiproliferative activity against human PC-9 cells harboring EGFR del19 mutant assessed as cell growth inhibition incubated for 72 hrs by CellTiter Glo assay; type: functional; settings: Homo sapiens, PC-9
[5] = test system: HCC827; experiment: Antiproliferative activity against human HCC827 cells harboring EGFR del19 mutant assessed as cell growth inhibition incubated for 72 hrs by CellTiter Glo assay; type: functional; settings: Homo sapiens, HCC827
[6] = test system: NCI-H1975; experiment: Antiproliferative activity against human NCI-H1975 cells harboring EGFR L858R/T790M mutant assessed as cell growth inhibition incubated for 72 hrs by CellTiter Glo assay; type: functional; settings: Homo sapiens, NCI-H1975

Chain of Epidermal growth factor receptor (Homo sapiens, UniProt P00533) (P00533 whole entry, the tested form may be a part): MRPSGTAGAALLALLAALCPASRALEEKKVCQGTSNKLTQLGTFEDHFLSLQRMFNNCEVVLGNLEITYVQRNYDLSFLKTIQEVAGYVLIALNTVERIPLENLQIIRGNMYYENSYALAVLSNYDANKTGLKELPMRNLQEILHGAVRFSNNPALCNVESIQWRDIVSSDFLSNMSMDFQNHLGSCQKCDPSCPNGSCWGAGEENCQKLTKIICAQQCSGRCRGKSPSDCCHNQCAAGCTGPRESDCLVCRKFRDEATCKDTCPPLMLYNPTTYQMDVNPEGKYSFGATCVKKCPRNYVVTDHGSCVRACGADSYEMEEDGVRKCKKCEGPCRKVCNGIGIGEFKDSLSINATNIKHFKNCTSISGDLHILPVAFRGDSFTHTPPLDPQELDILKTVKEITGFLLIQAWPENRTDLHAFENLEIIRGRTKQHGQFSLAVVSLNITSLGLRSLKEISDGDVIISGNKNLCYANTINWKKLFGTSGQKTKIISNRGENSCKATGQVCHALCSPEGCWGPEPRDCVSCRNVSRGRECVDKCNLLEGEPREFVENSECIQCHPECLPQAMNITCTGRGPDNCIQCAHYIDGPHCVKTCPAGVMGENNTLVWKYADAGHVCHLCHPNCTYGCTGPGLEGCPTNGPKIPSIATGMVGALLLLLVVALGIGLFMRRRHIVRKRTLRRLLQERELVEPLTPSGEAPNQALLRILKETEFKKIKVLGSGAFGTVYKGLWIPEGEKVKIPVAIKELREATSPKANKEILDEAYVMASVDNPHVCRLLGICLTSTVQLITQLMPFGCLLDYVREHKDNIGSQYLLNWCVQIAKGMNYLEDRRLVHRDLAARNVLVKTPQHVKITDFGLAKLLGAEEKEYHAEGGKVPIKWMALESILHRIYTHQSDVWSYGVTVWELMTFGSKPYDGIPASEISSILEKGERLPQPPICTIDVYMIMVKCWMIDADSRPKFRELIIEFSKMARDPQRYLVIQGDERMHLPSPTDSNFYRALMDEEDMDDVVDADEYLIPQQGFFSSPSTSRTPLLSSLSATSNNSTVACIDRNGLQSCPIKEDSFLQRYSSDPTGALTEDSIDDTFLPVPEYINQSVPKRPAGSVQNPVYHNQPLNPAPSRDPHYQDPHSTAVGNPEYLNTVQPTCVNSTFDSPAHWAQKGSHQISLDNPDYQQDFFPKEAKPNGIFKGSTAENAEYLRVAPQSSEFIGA

| SMILES | IC50 [1] | IC50 [2] | GI50 [3] | GI50 [4] | GI50 [5] | GI50 [6] |
| --- | --- | --- | --- | --- | --- | --- |
| COc1cc(N(C)CCN(C)C)c(NC(=O)/C=C/CN(C)C)cc1Nc1nccc(-c2cnc3c(C)cccn23)n1 | 0.0468 µM | 0.00115 µM |  |  |  |  |
| C=CC(=O)Nc1cc(Nc2nccc(-c3cnn4c(C)cccc34)n2)c(OC)cc1N(C)CCN(C)C | 0.0166 µM | 0.00141 µM |  |  |  |  |
| C=CC(=O)Nc1cc(Nc2nccc(-c3ccc4c(C)nccn34)n2)c(OC)cc1N(C)CCN(C)C | 0.026 µM | 0.00152 µM |  |  |  |  |
| C=CC(=O)Nc1cc(Nc2nccc(-c3cnc4c(OC)cccn34)n2)c(OC)cc1N(C)CCN(C)C | 0.0163 µM | 0.00165 µM |  |  |  |  |
| CC#CC(=O)Nc1cc(Nc2nccc(-c3ncc4c(C)cccn34)n2)c(OC)cc1N(C)CCN(C)C | 0.0491 µM | 0.00138 µM |  |  |  |  |
| C=CC(=O)Nc1cc(Nc2nccc(-c3cnc4c(Cl)cccn34)n2)c(OC)cc1N(C)CCN(C)C |  |  | 0.495 µM | 0.0073 µM | 0.0056 µM | 0.103 µM |
| C=CC(=O)Nc1cc(Nc2nccc(-c3cnc4c(C)cccn34)n2)c(OC)cc1N(C)C1CCCN(C)C1 (stereo not drawn) | 0.0828 µM | 0.00177 µM |  |  |  |  |
| C=CC(=O)Nc1cc(Nc2nccc(-c3cnc4c(C)cccn34)n2)c(OC)cc1N(C)CCN1CCOCC1 | 0.212 µM | 0.00159 µM |  |  |  |  |
